Experimental data from ChEMBL document CHEMBL3120129, “Enantiomeric atropisomers inhibit HCV polymerase and/or HIV matrix: characterizing hindered bond rotations and target selectivity” (J Med Chem, 2014).

What was measured:
[1] = test system: Human immunodeficiency virus 1; assay: Antiviral activity against HIV1 NL-4.3; format: functional, organism-based; settings: Human immunodeficiency virus 1, NL-4.3
[2] = Inhibition of HCV genotype 1b hexa-histidine-tagged NS5B polymerase expressed in baculovirus infected cell system; parameters: species or system Hepatitis C virus subtype 1b
[3] = Inhibition of HIV1 NL-4.3 matrix (1 to 132) expressed in BL21(DE3) cells using [PI(4,5)P2]2 as substrate after 30 mins by fluorescence polarization assay; parameters: species or system Human immunodeficiency virus 1
Hepatitis C virus = assay: Antiviral activity against HCV genotype 1b by HCV replicon assay; format: functional, organism-based, Hepacivirus hominis
[4] = Apparent half life of the compound assessed as atropisomer interconversion by HPLC analysis; format: physicochemical; settings: read-out: t1/2(app)

Row | SMILES | EC50 [1] [nM] | IC50 [2] [nM] | IC50 [3] [nM] | EC50 (Hepatitis C virus) [nM] | half-life [4] [h]
1 | COc1ccc(C(=O)Nc2ccc(Oc3ccc(N(C(=O)[C@H]4CC[C@H](C)CC4)C(C)C)c(C(=O)O)c3)cc2)cc1 | 2800 | 630 | 3400 | 950 | –
2 | COC[C@H](C)N(c1ccc(Oc2ncc(CCn3nccn3)cc2C(F)(F)F)c(F)c1)C(=O)[C@H]1CC[C@H](C)CC1 | – | 56000 | – | – | –
3 | Cc1cc(OCc2cnc(Oc3ccc(N(C(=O)[C@H]4CC[C@H](C)CC4)C(C)C)c(C(=O)O)c3)c(C(F)(F)F)c2)c2ccccc2n1 | – | – | – | – | 1.15
4 | COC[C@H](C)N(c1cc(F)c(Oc2ncc(CCn3nccn3)cc2C(F)(F)F)cc1C(=O)O)C(=O)[C@H]1CC[C@H](C)CC1 | – | 68 | – | – | –
5 | CC(C)N(c1ccc(Oc2ccccc2C(F)(F)F)cc1C(=O)O)C(=O)[C@H]1CC[C@H](C)CC1 | – | 190 | > 175000 | – | –
6 | CC(C)N(c1cc(F)c(Oc2ncc(CCn3nccn3)cc2C(F)(F)F)cc1C(=O)O)C(=O)[C@H]1CC[C@H](C)CC1 | – | 68 | – | – | –
7 | CN(c1ccc(Oc2ccccc2C(F)(F)F)cc1C(=O)O)C(=O)[C@H]1CC[C@H](C)CC1 | – | 200 | > 100000 | 1100 | –
8 | C[C@H]1CC[C@H](C(=O)Nc2ccc(Oc3ccccc3C(F)(F)F)cc2C(=O)O)CC1 | – | 15000 | > 95000 | – | –
